Source: patent publication US10085957B2, “Benzoic acid compounds for reducing uric acid” (Wellstat Therapeutics Corporation, priority 2010, dated 2018)
Like-named read-outs stand apart in the source and are kept apart here.

Target: T1, human URAT1 (Homo sapiens, UniProt Q96S37)
T1 construct: The full-length hURAT1 cDNA was obtained from the vector pCMV6-XL5 and subcloned into the expression vector pCMV6-Neo
T1 sequence (Q96S37 1-553): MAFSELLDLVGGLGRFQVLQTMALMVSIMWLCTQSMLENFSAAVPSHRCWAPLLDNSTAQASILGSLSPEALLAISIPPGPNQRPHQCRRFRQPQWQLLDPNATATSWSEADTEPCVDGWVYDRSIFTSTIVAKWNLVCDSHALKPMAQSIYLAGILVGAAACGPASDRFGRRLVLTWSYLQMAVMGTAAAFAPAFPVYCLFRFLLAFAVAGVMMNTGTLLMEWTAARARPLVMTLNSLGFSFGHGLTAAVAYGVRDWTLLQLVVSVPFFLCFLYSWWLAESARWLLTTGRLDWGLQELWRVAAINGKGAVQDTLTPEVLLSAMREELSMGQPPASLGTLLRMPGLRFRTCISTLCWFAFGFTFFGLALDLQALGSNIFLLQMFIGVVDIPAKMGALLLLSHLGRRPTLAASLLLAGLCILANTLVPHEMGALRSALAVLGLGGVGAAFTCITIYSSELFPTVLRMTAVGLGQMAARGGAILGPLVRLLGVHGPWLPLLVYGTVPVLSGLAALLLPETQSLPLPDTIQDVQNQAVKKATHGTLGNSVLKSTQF
Experiment: URAT1 inhibition assay: [8-14C] urate uptake in hURAT1-HEK cells
Assay type: cell-based
Protocol: An in vitro URAT1 assay is useful for identifying compounds with potential activity in lowering serum uric acid. A suitable assay involves transfection of cells (e.g. human embryonic kidney cells; “HEK”) with a vector encoding human URAT1, followed by determination of the ability of transfected cells to take up radiolabeled uric acid. The activity of compounds as URAT1 inhibitors is evaluated by their ability to block uric acid uptake by transfected cells.
Plasmid vector pCMV6-XL5 containing hURAT1 cDNA (Cat. No. SC125624) and the expression vector pCMV6-Neo (Cat. No.pCMVNEO) were obtained from OriGene Technologies, Inc. The full-length hURAT1 cDNA was obtained from the vector pCMV6-XL5 and subcloned into the expression vector pCMV6-Neo to create the hURAT1 expression plasmid pCMV6-hURAT1. The sequences were verified by automatic DNA sequencing.
Human embryonic kidney 293 (HEK) cells (ATTCC, Cat No. CRL-1573) were cultured in EMEM supplemented with 10% FBS and 2 mM L-glutamine and incubated at 37° C. and 5% CO2. For transfection experiments, cells were plated on 60 mm dishes in 1 ml media per dish. After an 18-24 hour incubation, cells were transfected with plasmid pCMV6-hURAT1 or the expression vector pCMV6-Neo, using the Lipofectin trasfection agent following the manufacturer's instructions (Invitrogen, Cat.No. 18292). After transfection cells were grown in EMEM media for 72 hours and then by adding lmg/ml Geneticin (GIBCO, Cat. No 10131) stable transfectants were selected. Stable transfectants expressing hURAT1 (herein after referred as hURAT1-HEK cells) or cells having only the expression vector pCMV6-Neo (herein after referred as mock-HEK cells) were verified using reverse transcription polymerase chain reaction (RT-PCR) methods.
hURAT1-HEK cells and mock-HEK cells were plated in poly-D-Lysine Cell culture 24 well plates (Becton Dickinson, Cat. No. 354414) at a concentration of 3×10^5 in EMEM medium and incubated overnight. Reaction solutions containing the [8-^14C] urate (55 mCi/mmol) at a final concentration of 50 μM were prepared with or without test compounds in Hanks' balanced salt solution (HBSS) containing 125 mM sodium gluconate, 4.8 mM potassium gluconate, 1.3 mM calcium, 5.6 mM glucose, 1.2 mM magnesium sulfate, 1.2 mM KH2PO4 and 25 mM HEPES (pH7.4). Before the uptake assay started, the culture medium was removed and the cells were incubated for 5 min in 0.6 ml of HBSS. After that HBSS was removed, the prepared reaction solutions were added into each well and incubated for 5 min at room temperature. Then the reaction solution was removed, cells were washed twice with 0.6 ml of cold HBSS and lysed with 0.2 ml of 0.1 M NaOH for 20 min. The cell lysates were transferred into the scintillation vials containing 1 ml of scintillation fluid (Opti Phase SuperMIX, PerkinElmer, Cat No. 1200-439) and the radioactivity was counted in the Microbeta counter (1450, Wallac Jet, PerkinElmer). Test compounds were dissolved in DMSO and the same concentration of DMSO was added into the wells of mock-HEK cells and the hURAT1-HEK cells that didn't contain test compounds. For each test compound, the uptake assay was performed 2 times and carried out in triplicate. Urate uptake of the cells for each test condition was presented as the average percent inhibition in comparison to the DMSO control. The radioactivity values obtained for the wells that contained DMSO were taken as 100% uptake of the cells. The observed concentration-percent inhibition data were fitted to a sigmoidal concentration-effect model, where: % Inhibition=(100*Conc^Slope)/(IC50^Slope+Conc^Slope)
IC50 and slope estimates with their 95% confidence limits were determined by a non-linear, least-squares regression analysis using the Data Analysis Toolbox™ (MDL Information Systems, San Leandro, Calif., USA). […]

[1] = 10 μM test compound, 14C urate uptake in hURAT1-HEK cells, vs DMSO control, read-out: % of inhibition (at 10 μM)

Row | inhibition at 10 µM [1] [%] | Compound | also measured
1 | 81 | Cc1cccc(C)c1COc1cc(C(=O)O)ccc1[N+](=O)[O-] [FB, 3-(2,6-dimethylbenzyloxy)-4-nitrobenzoic acid] | 
2 | 68.1 | Cc1cccc(C)c1COc1cc(C(=O)O)ccc1F [FD, 3-(2,6-dimethylbenzyloxy)-4-fluorobenzoic acid] | 

Further lines, the molecule ahead of its results:

Row | Compound | inhibition at 10 µM [1] [%] | also measured
3 | Cc1cccc(C)c1COc1cc(C(=O)O)ccc1N [FE, 4-amino-3-(2,6-dimethylbenzyloxy)benzoic acid] | 10 | 
4 | Cc1ccc(C(=O)O)cc1OCc1c(C)cccc1C [FA, 3-(2,6-dimethylbenzyloxy)-4-methylbenzoic acid] | 83.2 | 
5 | COc1ccc(C(=O)O)cc1OCc1c(C)cccc1C [Compound FC, 3-(2,6-dimethylbenzyloxy)-4-methoxybenzoic acid] | 89.2 | inhibition at 0.05 µM (concentration 0.05 μM, urate uptake in hURAT1-HEK cells): 7.08%; inhibition at 0.1 µM (concentration 0.1 μM, urate uptake in hURAT1-HEK cells): -1.08%; inhibition at 0.5 µM (concentration 0.5 μM, urate uptake in hURAT1-HEK cells): 34.6%; inhibition at 1 µM (concentration 1 μM, urate uptake in hURAT1-HEK cells): 49.8%; inhibition at 10 µM (concentration 10 μM, urate uptake in hURAT1-HEK cells (Table 2), read-out: % of inhibition Avg.): 93.3%; inhibition at 100 µM (concentration 100 μM, urate uptake in hURAT1-HEK cells): 97.8%
6 | Cc1ccc(CC(=O)O)cc1OCc1c(C)cccc1C [EH, 2-(3-(2,6-Dimethylbenzyloxy)-4-methylphenyl)acetic acid, reference compound] | 95.6 | 
